Key:
[1] = system: P. destructans conidia; test: VOC exposure assay with P. destructans conidia in a contained airspace; as to anti-P. destructans activity, growth from conidia: key: +: growth from spores; −: no visible growth; assay type: cell-based, Pseudogymnoascus destructans; settings: for inhibitory activity on conidia: 11 days of exposure; for anti-P. destructans activity against conidia / inhibition of conidia with activated carbon: 30 μl; for anti-P. destructans activity against conidia: closed system; for inhibition of conidia with activated carbon: control plates containing 1 g activated carbon
From the text: (§1) Volatile organic compounds previously shown to be produced by bacteria [Chuankun X, et al. Soil Biol Biochem. 2004 36:1997-2004; Fernando W G D, et al. Soil Biol Biochem. 2005 37:955-64] were screened for anti-P. destructans activity via VOC exposure to spores and mycelial plugs. The VOCs included: decanal; 2-ethyl-1-hexanol; nonanal; benzothiazole; benzaldehyde; and N,N-dimethyloctylamine (Sigma-Aldrich, Missouri). All VOCs were chosen based on their identification in fungistatic soils and their observed production in bacteria [Chuankun X, et al. Soil Biol Biochem. 2004 36:1997-2004; Fernando W G D, et al. Soil Biol Biochem. 2005 37:955-64]. All VOCs purchased as pure, liquid, research grade reagents and used directly, without modification, in all subsequent assays. A single-compartment Petri plate (150 mm×15 mm) was used for a contained airspace to assess P. destructans growth characteristics in the presence of fungistatic VOCs. Ten microliters of P. destructans conidia suspension (10^6 conidia ml^−1 in PBS) was spread onto SDA plates (35 mm×10 mm). Aliquots of 30, 3.0, or 0.3 μl of each VOC corresponding to maximum possible relative concentrations ranging from 113 ppm (v/v) to 1.13 ppm (v/v) were pipetted onto a sterile filter paper disk (12.7 mm) on a watch glass (75 mm). Each VOC containing disk and watch glass was placed inside a large Petri plate (150 mm 9 15 mm) along with a P. destructans-inoculated SDA plate (35 mm×10 mm) (FIG. 6). P. destructans mycelial plugs cut from the leading edge of actively growing colonies were inserted into fresh SDA plates (35 mm×10 mm) and placed in large Petri plates (150 mm×15 mm) with each formulation or pure VOC containing paper disk and sealed with parafilm M (Sigma-Aldrich, Missouri). […] Unexposed cultures and the addition of activated carbon to exposure assays served as negative controls for each trial. Anti-P. destructans activity was scored on a plus/minus scale for conidia-inoculated plates, and the radial growth from mycelial plugs was used to determine percent inhibition by comparing growth area of VOC exposed plugs to unexposed controls. All assays were performed in triplicate and averaged.

[2] = system: P. destructans mycelial plugs; test: VOC exposure assay with P. destructans mycelial plugs, radial growth area; assay type: cell-based, Pseudogymnoascus destructans; settings: for inhibition of radial mycelial growth: 3 μl, up to 14 days
From the text: as §1
Filamentous fungi grow by hyphae elongation and not by distinct cellular division. Accordingly, measuring the difference between the area growth of control agent-exposed mycelial plugs and control plugs has been a vetted method for assessing antimicrobial susceptibility [Fernando W G D, et al. Soil Biol Biochem. 2005 37:955-64; Liu W, et al. Curr Res Bacteriol. 2008 1:128-34; Strobel G A, et al. Microbiology. 2007 153:2613-20]. The use of a ruler to measure the area of mycelial growth of filamentous fungi has its own challenges. Mycelial plugs will often grow asymmetrically, either naturally or because of exposure to the compound being tested. To provide more accurate measurement of mycelial growth, a digital photography and analysis technique was developed.
The GIMP (GNU Image Manipulation Program) is open-source, freely distributed software for image editing and authoring, compatible with GNU/Linux, Microsoft Windows, Mac OS X, Sun OpenSolaris, and FreeBSD operating systems. This software allows for the direct measurement of the number of pixels in a given selected area of a photograph. GIMP version 2.8.2 for Microsoft Windows was used at the time of this writing. A Nikon D3100 digital single lens reflex camera with an 18-55 mm lens was used to capture images. A standard three-leg tripod was used for support during capture.
The camera was attached to the tripod and aimed down to a surface to provide a consistent distance from the lens to the mycelial surface being photographed; ensuring the same pixel to millimeter ratio was retained for all acquired images. Images of mycelial plugs had their corresponding image numbers catalogued for later identification. […]

[3] = 3 μl VOC, 7 day exposure, incubated with activated carbon
[4] = 3 μl VOC, 10 day exposure, incubated with activated carbon
[5] = 30 μl VOC, incubated with activated carbon, 15° C.

## CCCCC(CC)CO (stereo not drawn) [2-ethyl-1-hexanol]
[1]; 3 μl VOC, 7 day exposure
  anti-P. destructans activity, growth from conidia: −
[1]; [3]
  anti-P. destructans activity, growth from conidia: +
[1]; 3 μl VOC, 10 day exposure
  anti-P. destructans activity, growth from conidia: −
[1]; [4]
  anti-P. destructans activity, growth from conidia: +
[1]; 3 μl
  inhibitory activity on conidia: demonstrated inhibitory activity
[1]; 30 μl VOC, 15° C.
  anti-P. destructans activity, growth from conidia: −
[1]; [5]
  anti-P. destructans activity, growth from conidia: +
[1]; 15° C.
  anti-P. destructans activity against conidia: demonstrated anti-P. destructans activity
[1]
  inhibition of conidia with activated carbon: no inhibition

## O=Cc1ccccc1 [Benzaldehyde, benzaldehyde]
[1]; 3 μl VOC, 7 day exposure
  anti-P. destructans activity, growth from conidia: −
[1]; [3]
  anti-P. destructans activity, growth from conidia: +
[1]; 3 μl VOC, 10 day exposure
  anti-P. destructans activity, growth from conidia: +
[1]; [4]
  anti-P. destructans activity, growth from conidia: +
[1]; 30 μl VOC, 15° C.
  anti-P. destructans activity, growth from conidia: −
[1]; [5]
  anti-P. destructans activity, growth from conidia: +
[1]; 15° C.
  anti-P. destructans activity against conidia: demonstrated anti-P. destructans activity
[1]
  inhibition of conidia with activated carbon: no inhibition

## c1ccc2scnc2c1 [Benzothiazole, benzothiazole]
[1]; 3 μl VOC, 7 day exposure
  anti-P. destructans activity, growth from conidia: −
[1]; [3]
  anti-P. destructans activity, growth from conidia: +
[1]; 3 μl VOC, 10 day exposure
  anti-P. destructans activity, growth from conidia: +
[1]; [4]
  anti-P. destructans activity, growth from conidia: +
[1]; 3 μl, without activated carbon
  colony morphology of cultures from conidia: unique colony morphology characterized by increased pigmentation of the underside of the culture and diffusion of pigment into the growth media
[1]; 30 μl VOC, 15° C.
  anti-P. destructans activity, growth from conidia: −
[1]; [5]
  anti-P. destructans activity, growth from conidia: −
[1]; 15° C.
  anti-P. destructans activity against conidia: demonstrated anti-P. destructans activity
[2]; 0.3 μl, 15° C., 14 days of exposure
  reduction in radial growth: 60%

## CCCCCCCCCC=O [Decanal, decanal]
[1]; 3 μl VOC, 7 day exposure
  anti-P. destructans activity, growth from conidia: −
[1]; [3]
  anti-P. destructans activity, growth from conidia: +
[1]; 3 μl VOC, 10 day exposure
  anti-P. destructans activity, growth from conidia: −
[1]; [4]
  anti-P. destructans activity, growth from conidia: +
[1]; 3 μl
  inhibitory activity on conidia: demonstrated inhibitory activity
[1]; 30 μl VOC, 15° C.
  anti-P. destructans activity, growth from conidia: −
[1]; [5]
  anti-P. destructans activity, growth from conidia: +
[1]; 15° C.
  anti-P. destructans activity against conidia: demonstrated anti-P. destructans activity
[1]
  inhibition of conidia with activated carbon: no inhibition
[2]; 0.3 μl, 4° C., 35 days post-inoculation
  reduction in growth area: greater than 99%
[2]; 15° C.
  inhibition of radial mycelial growth: only minor reductions in radial growth
[2]; 30 μl, 15° C., 14 days of exposure
  reduction in growth as compared to unexposed controls: 83%

## CCCCCCCCN(C)C [N,N-dimethyloctylamine]
[1]; 3 μl VOC, 7 day exposure
  anti-P. destructans activity, growth from conidia: +
[1]; [3]
  anti-P. destructans activity, growth from conidia: +
[1]; 3 μl VOC, 10 day exposure
  anti-P. destructans activity, growth from conidia: +
[1]; [4]
  anti-P. destructans activity, growth from conidia: +
[1]; 3 μl, 7 days
  inhibition of growth from conidia: unable to completely inhibit
[1]; 30 μl VOC, 15° C.
  anti-P. destructans activity, growth from conidia: −
[1]; [5]
  anti-P. destructans activity, growth from conidia: −
[1]; 15° C.
  anti-P. destructans activity against conidia: demonstrated anti-P. destructans activity
[2]; 0.3 μl, 15° C.
  effect on radial growth as compared to unexposed controls: induced growth
[2]; 15° C.
  inhibition of radial mycelial growth: only minor reductions in radial growth

## CCCCCCCCC=O [Nonanal, nonanal]
[1]; 3 μl VOC, 7 day exposure
  anti-P. destructans activity, growth from conidia: −
[1]; [3]
  anti-P. destructans activity, growth from conidia: +
[1]; 3 μl VOC, 10 day exposure
  anti-P. destructans activity, growth from conidia: −
[1]; [4]
  anti-P. destructans activity, growth from conidia: +
[1]; 3 μl
  inhibitory activity on conidia: demonstrated inhibitory activity
[1]; 30 μl VOC, 15° C.
  anti-P. destructans activity, growth from conidia: −
[1]; [5]
  anti-P. destructans activity, growth from conidia: −
[1]; 15° C.
  anti-P. destructans activity against conidia: demonstrated anti-P. destructans activity

## CSSSC [dimethyltrisulfide]
[1]; 15° C.
  anti-P. destructans activity against conidia: demonstrated anti-P. destructans activity
